From the supplement of paper PMC10307832

Assays:
Assay in all cases: relative viability (nuclei count vs DMSO), 5 days (fraction); higher = more cells survive
Venetoclax + Olaparib = compound: CC1(C)CCC(CN2CCN(c3ccc(C(=O)NS(=O)(=O)c4ccc(NCC5CCOCC5)c([N+](=O)[O-])c4)c(Oc4cnc5[nH]ccc5c4)c3)CC2)=C(c2ccc(Cl)cc2)C1 [Venetoclax] + O=C(c1cc(Cc2n[nH]c(=O)c3ccccc23)ccc1F)N1CCN(C(=O)C2CC2)CC1 [Olaparib] (partner 8 µM)
In short: (§1)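 A single step with final 0.05% Triton X-100, 1% formaldehyde and 1 ug/ml Hoechst fixed the cells and stained nuclei 5 days after treatment. Lung cancer cell lines in 1536-well plates had been treated by pin tool the day after seeding with one drug alone or a fixed anchor-drug dose plus five library-drug doses (not always all listed) in √10 steps, and nuclei were counted on 4× images. Relative viability is the ratio of nuclei in treated wells to nuclei in vehicle wells, taken as the median of duplicate plates.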

Selumetinib + Tozasertib = compound: Cn1cnc2c(F)c(Nc3ccc(Br)cc3Cl)c(C(=O)NOCCO)cc21 [Selumetinib] + Cc1cc(Nc2cc(N3CCN(C)CC3)nc(Sc3ccc(NC(=O)C4CC4)cc3)n2)n[nH]1 [Tozasertib] (partner 0.1 µM)
In short: as §1

Venetoclax + Lapatinib = compound: CC1(C)CCC(CN2CCN(c3ccc(C(=O)NS(=O)(=O)c4ccc(NCC5CCOCC5)c([N+](=O)[O-])c4)c(Oc4cnc5[nH]ccc5c4)c3)CC2)=C(c2ccc(Cl)cc2)C1 [Venetoclax] + CS(=O)(=O)CCNCc1ccc(-c2ccc3ncnc(Nc4ccc(OCc5cccc(F)c5)c(Cl)c4)c3c2)o1 [Lapatinib] (partner 2 µM)
In short: as §1

Selumetinib + Decitabine = compound: Cn1cnc2c(F)c(Nc3ccc(Br)cc3Cl)c(C(=O)NOCCO)cc21 [Selumetinib] + Nc1ncn([C@H]2C[C@H](O)[C@@H](CO)O2)c(=O)n1 [Decitabine] (partner 2 µM)
In short: as §1

Row | Cell Line | relative viability (Venetoclax + Olaparib; first compound 0.01 µM) | relative viability (Venetoclax + Olaparib; first compound 0.03162 µM) | relative viability (Venetoclax + Olaparib; first compound 0.1 µM) | relative viability (Venetoclax + Olaparib; first compound 0.3162 µM) | relative viability (Venetoclax + Olaparib; first compound 1 µM) | relative viability (Selumetinib + Tozasertib; first compound 0.02 µM) | relative viability (Selumetinib + Tozasertib; first compound 0.06325 µM) | relative viability (Selumetinib + Tozasertib; first compound 0.2 µM) | relative viability (Selumetinib + Tozasertib; first compound 0.6325 µM) | relative viability (Venetoclax + Lapatinib; first compound 0.01 µM) | relative viability (Venetoclax + Lapatinib; first compound 0.03162 µM) | relative viability (Venetoclax + Lapatinib; first compound 0.1 µM) | relative viability (Venetoclax + Lapatinib; first compound 0.3162 µM) | relative viability (Venetoclax + Lapatinib; first compound 1 µM) | relative viability (Selumetinib + Decitabine; first compound 0.02 µM) | relative viability (Selumetinib + Decitabine; first compound 0.06325 µM) | relative viability (Selumetinib + Decitabine; first compound 0.2 µM) | relative viability (Selumetinib + Decitabine; first compound 0.6325 µM)
1 | RERF-LC-KJ | 0.883 | 0.839 | 0.934 | 0.935 | 0.847 | 0.541 | 0.489 | 0.465 | 0.44 | 0.813 | 0.844 | 0.838 | 0.832 | 0.832 | 0.682 | 0.608 | 0.639 | 0.737
2 | SK-LU-1 | 0.447 | 0.665 | 0.477 | 0.574 | 0.623 | 0.301 | 0.306 | 0.29 | 0.252 | 0.907 | 1.1 | 0.859 | 0.955 | 0.893 | 0.793 | 0.65 | 0.572 | 0.438
3 | SK-MES-1 | 0.732 | 0.918 | 0.66 | 0.737 | 0.664 | 1.08 | 0.894 | 0.949 | 0.676 | 0.462 | 0.53 | 0.461 | 0.425 | 0.463 | 0.416 | 0.307 | 0.356 | 0.323
4 | SW 1573 | 0.581 | 0.516 | 0.479 | 0.473 | 0.399 | 0.15 | 0.145 | 0.174 | 0.153 | 1.15 | 0.979 | 0.935 | 1.08 | 0.966 | 0.505 | 0.369 | 0.384 | 0.373
